Reference: ChEMBL document CHEMBL3259532, “Elucidation of different inhibition mechanism of small chemicals on PtdInsP-binding domains using in silico docking experiments” (Bioorg Med Chem Lett, 2014)

Columns and labels:
[1] = target: T1, Cytohesin-3 (Homo sapiens) (UniProt O43739); test: Inhibition of C-terminal 6xHis-tagged Grp1 PH domain (unknown origin) expressed in Escherichia coli BL21(DE3) RIL assessed as inhibition of interaction with PtdIns(3,4,5)P3 at 500 uM after 15 mins by SPR analysis relative to control
T1 sequence (whole entry): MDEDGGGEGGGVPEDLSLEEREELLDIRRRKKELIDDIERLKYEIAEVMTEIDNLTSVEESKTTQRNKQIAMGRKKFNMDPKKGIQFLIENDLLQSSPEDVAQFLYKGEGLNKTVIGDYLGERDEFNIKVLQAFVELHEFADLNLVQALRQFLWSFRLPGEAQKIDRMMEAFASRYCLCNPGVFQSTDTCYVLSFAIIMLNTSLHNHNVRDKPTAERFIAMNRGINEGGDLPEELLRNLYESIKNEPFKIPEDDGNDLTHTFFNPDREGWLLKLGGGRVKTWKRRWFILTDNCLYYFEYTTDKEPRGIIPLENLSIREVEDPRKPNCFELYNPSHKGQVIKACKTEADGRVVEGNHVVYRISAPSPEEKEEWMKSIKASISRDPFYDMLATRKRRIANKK

Epsin-1 (Homo sapiens) = target: T2, Epsin-1 (Homo sapiens) (UniProt Q9Y6I3); test: Inhibition of C-terminal 6xHis-tagged epsin-1 ENTH domain (unknown origin) expressed in Escherichia coli BL21(DE3) RIL assessed as inhibition of interaction with PtdIns(4,5)P2 at 100 uM after 15 mins by SPR analysis relative to control
T2 sequence (whole entry): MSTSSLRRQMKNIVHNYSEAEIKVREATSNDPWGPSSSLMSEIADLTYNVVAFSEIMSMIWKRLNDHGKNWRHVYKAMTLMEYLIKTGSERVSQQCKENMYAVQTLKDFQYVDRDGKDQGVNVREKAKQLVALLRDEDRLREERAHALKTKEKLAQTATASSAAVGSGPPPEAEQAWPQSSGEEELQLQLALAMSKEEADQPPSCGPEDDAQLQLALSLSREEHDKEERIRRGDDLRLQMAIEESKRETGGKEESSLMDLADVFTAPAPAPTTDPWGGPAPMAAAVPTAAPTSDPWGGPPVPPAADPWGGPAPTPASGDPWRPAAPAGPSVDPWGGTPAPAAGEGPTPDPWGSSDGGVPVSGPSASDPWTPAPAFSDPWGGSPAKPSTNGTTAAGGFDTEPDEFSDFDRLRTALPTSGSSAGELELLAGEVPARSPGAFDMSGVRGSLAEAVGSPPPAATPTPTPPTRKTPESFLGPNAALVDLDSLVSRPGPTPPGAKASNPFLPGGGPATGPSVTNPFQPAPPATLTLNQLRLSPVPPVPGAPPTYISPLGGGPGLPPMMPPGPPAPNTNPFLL

Cytohesin-3 = target: T3, Cytohesin-3 (Homo sapiens, UniProt O43739); test: Inhibition of recombinant C-terminal 6xHis-tagged Grp1 PH domain (unknown origin) expressed in Escherichia coli BL21(DE3) RIL assessed as inhibition of interaction with PtdIns(3,4,5)P3 after 15 mins by SPR analysis
T3 sequence (O43739 whole entry): T1 sequence (whole entry)

SMILES	inhibition [1] [%]	inhibition (Epsin-1 (Homo sapiens)) [%]	IC50 (Cytohesin-3) [µM]
CC1(C(=O)O)CC([PH](=O)O)=NN1 (stereo unspecified)	63	8	–
COP(=O)(O)C1=NNC(C)(C(=O)O)C1 (stereo unspecified)	48	8.3	–
CCOP(=O)(O)c1cc(C(=O)O)[nH]n1	36	57	–
O=C(O)c1cc(P(=O)(O)O)n[nH]1	77	61	38
O=C1[C@@H]2C[C@@H]3CC[C@@]2(O3)[C@@H](P(=O)(O)O)N1Cc1ccccc1	0	13	–
